Measured values taken from ChEMBL document CHEMBL2169811, “Oncoepigenomics: making histone lysine methylation count” (Eur J Med Chem, 2012).

Key:
[1] = biological target: T1, Histone-lysine N-methyltransferase EHMT1 (Homo sapiens, UniProt Q9H9B1); assay: Binding affinity to human recombinant GLP catalytic domain amino acid 951 to 1235 expressed in Escherichia coli BL21 (DE3) by isothermal titration calorimetry assay
T1 sequence (Q9H9B1 whole entry): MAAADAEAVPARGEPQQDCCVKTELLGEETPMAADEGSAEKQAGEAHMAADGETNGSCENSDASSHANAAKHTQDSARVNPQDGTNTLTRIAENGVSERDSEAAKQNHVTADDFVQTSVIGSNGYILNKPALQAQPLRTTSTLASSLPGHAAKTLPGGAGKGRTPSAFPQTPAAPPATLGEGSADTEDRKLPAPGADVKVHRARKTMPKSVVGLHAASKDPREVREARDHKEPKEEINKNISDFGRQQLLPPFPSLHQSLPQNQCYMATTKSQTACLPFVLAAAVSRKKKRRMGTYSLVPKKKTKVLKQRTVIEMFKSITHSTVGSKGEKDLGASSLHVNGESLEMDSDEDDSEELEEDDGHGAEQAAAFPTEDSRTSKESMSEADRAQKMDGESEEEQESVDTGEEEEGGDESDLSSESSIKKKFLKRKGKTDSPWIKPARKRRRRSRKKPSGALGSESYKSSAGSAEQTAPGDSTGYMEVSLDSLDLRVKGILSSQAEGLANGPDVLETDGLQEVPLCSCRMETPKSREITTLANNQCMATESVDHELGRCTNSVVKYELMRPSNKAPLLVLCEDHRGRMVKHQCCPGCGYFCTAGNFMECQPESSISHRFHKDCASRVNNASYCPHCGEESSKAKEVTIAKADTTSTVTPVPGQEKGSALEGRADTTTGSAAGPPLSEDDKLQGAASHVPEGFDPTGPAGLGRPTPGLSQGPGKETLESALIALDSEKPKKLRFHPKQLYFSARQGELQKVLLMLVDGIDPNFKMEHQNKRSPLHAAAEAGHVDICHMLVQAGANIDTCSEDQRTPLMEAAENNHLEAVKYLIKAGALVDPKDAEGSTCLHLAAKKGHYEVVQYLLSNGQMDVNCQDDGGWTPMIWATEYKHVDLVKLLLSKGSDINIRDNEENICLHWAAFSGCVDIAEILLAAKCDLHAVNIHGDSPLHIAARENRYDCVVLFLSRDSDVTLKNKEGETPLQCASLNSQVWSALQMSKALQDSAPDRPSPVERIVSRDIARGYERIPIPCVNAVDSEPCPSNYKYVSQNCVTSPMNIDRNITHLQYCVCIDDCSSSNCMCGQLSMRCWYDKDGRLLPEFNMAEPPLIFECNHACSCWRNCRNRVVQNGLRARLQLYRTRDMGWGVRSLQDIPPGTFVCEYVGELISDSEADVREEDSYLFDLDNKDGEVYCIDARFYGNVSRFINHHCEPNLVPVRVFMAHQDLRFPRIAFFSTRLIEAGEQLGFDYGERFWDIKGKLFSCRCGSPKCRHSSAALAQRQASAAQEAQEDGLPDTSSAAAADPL

[2] = biological target: T2, Histone-lysine N-methyltransferase EHMT2 (Homo sapiens, UniProt Q96KQ7); assay: Binding affinity to human recombinant G9a catalytic domain amino acid 913 to 1193 expressed in Escherichia coli BL21 (DE3) by isothermal titration calorimetry assay
T2 sequence (Q96KQ7 whole entry): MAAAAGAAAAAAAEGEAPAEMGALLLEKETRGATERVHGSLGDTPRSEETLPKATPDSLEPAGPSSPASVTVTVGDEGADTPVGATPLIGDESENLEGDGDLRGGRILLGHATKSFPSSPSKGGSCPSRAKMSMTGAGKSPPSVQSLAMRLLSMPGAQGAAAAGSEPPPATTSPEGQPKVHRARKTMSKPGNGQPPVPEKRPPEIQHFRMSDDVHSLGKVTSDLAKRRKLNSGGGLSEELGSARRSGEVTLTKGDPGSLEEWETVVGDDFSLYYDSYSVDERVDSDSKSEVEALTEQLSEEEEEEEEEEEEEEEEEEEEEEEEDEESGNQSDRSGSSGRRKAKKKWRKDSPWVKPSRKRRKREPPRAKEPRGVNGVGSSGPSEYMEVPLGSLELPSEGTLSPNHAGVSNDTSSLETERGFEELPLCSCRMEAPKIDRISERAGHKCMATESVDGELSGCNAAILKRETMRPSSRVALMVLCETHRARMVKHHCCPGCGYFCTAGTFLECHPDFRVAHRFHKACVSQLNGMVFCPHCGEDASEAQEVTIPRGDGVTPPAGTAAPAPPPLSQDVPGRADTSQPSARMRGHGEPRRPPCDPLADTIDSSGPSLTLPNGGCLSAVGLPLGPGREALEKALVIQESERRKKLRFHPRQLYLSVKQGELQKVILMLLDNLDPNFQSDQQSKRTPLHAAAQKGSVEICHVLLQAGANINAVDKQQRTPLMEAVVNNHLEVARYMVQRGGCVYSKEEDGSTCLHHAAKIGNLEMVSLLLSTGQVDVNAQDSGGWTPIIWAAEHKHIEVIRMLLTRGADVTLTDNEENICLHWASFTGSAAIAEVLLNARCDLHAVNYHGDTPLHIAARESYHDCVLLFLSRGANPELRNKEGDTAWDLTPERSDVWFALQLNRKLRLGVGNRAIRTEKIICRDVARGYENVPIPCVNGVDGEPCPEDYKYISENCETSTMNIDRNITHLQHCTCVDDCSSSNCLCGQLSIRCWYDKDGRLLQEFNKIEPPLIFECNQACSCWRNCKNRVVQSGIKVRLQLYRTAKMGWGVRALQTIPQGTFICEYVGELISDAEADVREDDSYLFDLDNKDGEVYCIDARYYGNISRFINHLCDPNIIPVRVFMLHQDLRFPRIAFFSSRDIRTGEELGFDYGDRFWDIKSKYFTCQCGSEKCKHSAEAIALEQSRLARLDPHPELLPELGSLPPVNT

[3] = biological target: T2, Histone-lysine N-methyltransferase EHMT2; assay: Inhibition of human recombinant G9a catalytic domain amino acid 913 to 1193 expressed in Escherichia coli BL21 (DE3) by mass spectrophotometric assay
[4] = biological target: T2, Histone-lysine N-methyltransferase EHMT2
Description: Inhibition of GST-tagged G9a after 1 hr by radioactive filter-binding assay

[5] = Inhibition of Neurospora crassa dim5
[6] = Inhibition of Drosophila melanogaster SET7/9
[7] = biological target: T3, Histone-lysine N-methyltransferase Set8 (Drosophila melanogaster, UniProt Q9VFK6); assay: Inhibition of Drosophila melanogaster PRSET7
T3 sequence (Q9VFK6 whole entry): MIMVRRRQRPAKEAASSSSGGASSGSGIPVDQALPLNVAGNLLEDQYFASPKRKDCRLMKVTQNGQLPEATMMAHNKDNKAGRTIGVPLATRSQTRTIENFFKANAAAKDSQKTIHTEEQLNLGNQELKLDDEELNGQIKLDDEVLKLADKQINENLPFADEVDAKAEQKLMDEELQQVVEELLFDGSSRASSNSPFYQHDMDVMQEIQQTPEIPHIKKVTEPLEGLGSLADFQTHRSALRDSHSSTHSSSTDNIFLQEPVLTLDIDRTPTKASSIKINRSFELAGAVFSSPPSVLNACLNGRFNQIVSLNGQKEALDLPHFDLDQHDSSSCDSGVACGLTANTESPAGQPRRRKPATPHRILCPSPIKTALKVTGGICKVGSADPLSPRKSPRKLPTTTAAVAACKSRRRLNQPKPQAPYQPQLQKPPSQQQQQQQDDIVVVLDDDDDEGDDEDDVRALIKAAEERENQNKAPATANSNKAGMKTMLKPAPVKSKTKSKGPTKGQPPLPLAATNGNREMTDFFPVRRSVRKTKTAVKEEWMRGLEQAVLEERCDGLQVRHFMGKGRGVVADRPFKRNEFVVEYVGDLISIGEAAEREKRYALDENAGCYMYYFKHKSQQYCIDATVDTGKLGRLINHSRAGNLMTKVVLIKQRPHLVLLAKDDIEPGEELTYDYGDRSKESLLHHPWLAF

[8] = biological target: Histone-lysine N-methyltransferase E(z) (Drosophila melanogaster, UniProt P42124); assay: Inhibition of Drosophila melanogaster E(Z)
[9] = biological target: T4, Histone-lysine N-methyltransferase SUV39H1 (Homo sapiens, UniProt O43463); assay: Inhibition of human SUV39H1
T4 sequence (O43463 whole entry): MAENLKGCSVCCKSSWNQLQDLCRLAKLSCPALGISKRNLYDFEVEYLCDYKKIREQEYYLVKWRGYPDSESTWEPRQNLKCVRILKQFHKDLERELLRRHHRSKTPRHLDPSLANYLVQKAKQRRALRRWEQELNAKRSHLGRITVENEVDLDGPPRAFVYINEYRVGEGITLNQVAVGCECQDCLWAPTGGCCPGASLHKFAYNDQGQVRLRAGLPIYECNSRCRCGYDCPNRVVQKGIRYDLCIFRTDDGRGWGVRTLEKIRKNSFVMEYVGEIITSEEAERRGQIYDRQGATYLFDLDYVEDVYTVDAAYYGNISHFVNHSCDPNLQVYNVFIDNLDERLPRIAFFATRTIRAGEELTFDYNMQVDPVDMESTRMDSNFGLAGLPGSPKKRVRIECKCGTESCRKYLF

Histone-lysine N-methyltransferase E(z), sequence (P42124 whole entry): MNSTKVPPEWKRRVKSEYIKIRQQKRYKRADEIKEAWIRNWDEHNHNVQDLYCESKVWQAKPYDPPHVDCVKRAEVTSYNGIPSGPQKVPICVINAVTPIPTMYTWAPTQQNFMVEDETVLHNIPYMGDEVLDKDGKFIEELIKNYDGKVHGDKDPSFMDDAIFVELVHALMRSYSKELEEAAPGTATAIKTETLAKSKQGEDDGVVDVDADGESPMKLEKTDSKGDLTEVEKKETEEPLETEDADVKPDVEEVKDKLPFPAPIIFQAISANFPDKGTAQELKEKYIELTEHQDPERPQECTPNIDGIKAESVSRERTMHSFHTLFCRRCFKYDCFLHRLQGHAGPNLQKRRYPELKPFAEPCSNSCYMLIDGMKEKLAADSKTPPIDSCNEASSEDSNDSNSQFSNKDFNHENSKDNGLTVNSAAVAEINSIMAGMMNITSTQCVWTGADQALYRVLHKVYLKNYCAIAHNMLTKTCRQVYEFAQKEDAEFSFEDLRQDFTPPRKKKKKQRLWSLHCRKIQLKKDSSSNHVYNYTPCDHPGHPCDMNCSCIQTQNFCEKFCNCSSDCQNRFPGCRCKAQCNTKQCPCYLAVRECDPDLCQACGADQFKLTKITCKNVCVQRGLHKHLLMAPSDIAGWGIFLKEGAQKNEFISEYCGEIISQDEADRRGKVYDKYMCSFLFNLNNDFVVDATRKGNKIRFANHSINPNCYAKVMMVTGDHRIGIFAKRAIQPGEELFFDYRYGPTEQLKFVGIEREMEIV

COc1cc2c(NC3CCN(CCCCCN)CC3)nc(NCCCN(C)C)nc2cc1OCCCCCN
Kd [1]: 136 nM | Kd [2]: 164 nM | IC50 [3]: 1300 nM

CN1C(=O)[C@@]23C[C@]4([C@]56C[C@@]78SS[C@@](CO)(C(=O)N7[C@H]5Nc5ccccc56)N(C)C8=O)c5ccccc5N[C@@H]4N2C(=O)[C@]1(CO)SS3 [CHAETOCIN]
IC50 [4]: 2400 nM | IC50 [5]: 3000 nM | IC50 [6]: > 90000 nM | IC50 [7]: > 90000 nM | IC50 [8]: > 90000 nM | IC50 [9]: 800 nM
